Several values for one entry are separate records, joined by “and”; a condition that tells them apart may be missing. Identical values can stand only once. Like-named read-outs stand apart in the source and are kept apart here. Peptide text beside a SMILES is read from it. * marks the point of attachment. Cbz = O=C(OCc1ccccc1)*
Columns and labels:
RAW264.7 cells [1] = details: Tang et al., Infect Immun 67:3055 (1999); read-out: EC50 in the LeTx assay; cited from earlier work
NF-κB = assay: NF-κB-mediated luciferase reporter gene assay, HEK293 NF-κB/Luc cells, TNF-α stimulation; type: cell-based; details: Homo sapiens, HEK293, 1 hr pretreatment, 6 hours TNF-α; read-out: EC50, NF-κB-mediated luciferase activity
Procedure: The HEK293 NF-κB/luciferase reporter cell line is a derivative of the human embryonic kidney cell line (ATCC; CRL-1573) and carries a luciferase reporter gene under the regulation of 5× NF-κB binding sites. […] When performing the luciferase assay, the DMEM basal medium was replaced with phenol-red free DMEM basal medium and the G418 was omitted.
For NF-κB-mediated luciferase assays, HEK293 NF-κB/luciferase cells were seeded at 1.5×10^4 cells/well in 90 μl phenol-red free DMEM complete medium into Corning 3917 white opaque-bottom tissue culture plates. For Formulae II-2, II-4, II-5A and II-18, a 400 μM starting dilution was made in 100% DMSO and this dilution was used to generate an 8-point half log dilution series. […] For formula II-20, a 2.5 mM or 8 mM starting dilution was made in 100% DMSO and the final test concentrations ranged from 6.3 μM to 2.0 nM or 20 μM to 6.3 nM respectively. The plates were returned to the incubator for 1 hour. After 1 hr pretreatment, 10 μl of a 50 ng/ml TNF-α solution, prepared in the phenol-red free DMEM medium was added, and the plates were incubated for an additional 6 hours.
At the end of the TNF-α stimulation, 100 μl of Steady Lite HTS luciferase reagent (Packard Bioscience) was added to each well and the plates were left undisturbed for 10 min at room temperature before measuring the luciferase activity. The relative luciferase units (RLU) were measured by using a Fusion microplate fluorometer (Packard Bioscience).
NF-κB inducible luciferase activity was measured at 6 hours.

Stability in solution = type: physicochemical
Excerpt: Compound VI-1B: UV (Acetonitrile/H2O) λmax 235 (sh) nm; ESMS, m/z 585.2 (M+H)^+.

[2] = target: rabbit muscle 20S proteasome, chymotrypsin-like activity (Oryctolagus cuniculus, UniProt G1T4Q9); assay: Chymotrypsin-like activity of purified rabbit muscle 20S proteasome (suc-LLVY-AMC); type: biochemical
Procedure: This peptide substrate is specific for the chymotrypsin-like enzyme activity of the proteasome.
Omuralide was prepared as a 10 mM stock in DMSO and stored in 5 μL aliquots at −80° C. […] The assay measures the hydrolysis of Suc-LLVY-AMC into Suc-LLVY and AMC. The released coumarin (AMC) was measured fluorometrically by using λex=390 nm and λem=460 nm. The assays were performed in a microtiter plate (Corning 3904), and followed kinetically with measurements every five minutes. The instrument used was a Thermo Lab Systems Fluoroskan, with the incubation chamber set to 37° C. The assays were performed according to the manufacturer's protocol, with the following changes. The proteasome was activated as described with SDS, and held on ice prior to the assay. […] Ten microliters of each dose were added in triplicate to the assay plate, and 190 μL of the activated proteasome was added and mixed. The samples were pre-incubated in the Fluoroskan for 5 minutes at 37° C. Substrate was added and the kinetics of AMC were followed for one hour.

HL-60/MX2 = assay: Cell growth inhibition assay (resazurin, 48 h); details: HL-60/MX2, 48 h
Procedure: The DNA binding agent Mitoxantrone was included as a control, as HL-60/MX2 cells are reported to be resistant to this chemotherapeutic agent (Harker W. G. et al. 1989).
(§1) Concentrations ranging from 6.32 μM to 2 nM were tested for II-2 and II-4.
HL-60/MX2 is a multidrug resistant tumor cell line derived from the human promyelocytic leukemia cell line, HL-60 and expresses reduced topoisomerase II activity. […] Mitoxantrone, the topoisomerase II targeting agent was included as a control.

MES-SA/Dx5 = assay: Cell growth inhibition assay (resazurin, 48 h); details: for EC50: MES-SA/Dx5, 48 h
Procedure: as §1
The multidrug resistant MES-SA/Dx5 tumor cell line was derived from the human uterine sarcoma MES-SA tumor cell line and expresses elevated P-Glycoprotein (P-gp), an ATP dependent efflux pump.

U266 = assay: Cell growth inhibition assay (resazurin, 48 h); type: cell-based; details: Homo sapiens, U-266, 48 h, U266, 48 h; read-out: EC50
PC-3 = assay: Cell growth inhibition assay (resazurin, 48 h); details: Homo sapiens, PC-3, 48 h
RAW264.7 cells [3] = assay: cells; details: Mus musculus, RAW264.7, read-out: viability, compound + LeTx
[4] = target: T1, 20S proteasome chymotrypsin-like activity in PC-3 cells (Homo sapiens, UniProt P28074); assay: Chymotrypsin-like activity of 20S proteasomes in treated PC-3 cells; type: cell-based; details: 1 hr
T1 construct: PC-3 (ATCC, CRL-1435), the human prostate cancer cell line; host or cells: PC-3
T1 sequence (P28074 60-263): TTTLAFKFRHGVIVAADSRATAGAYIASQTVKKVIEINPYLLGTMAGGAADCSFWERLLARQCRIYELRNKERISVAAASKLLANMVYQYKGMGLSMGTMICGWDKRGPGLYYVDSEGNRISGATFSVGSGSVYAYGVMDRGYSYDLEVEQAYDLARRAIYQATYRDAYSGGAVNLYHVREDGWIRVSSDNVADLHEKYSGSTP
Procedure: PC-3 (ATCC, CRL-1435), the human prostate cancer cell line, was cultured in F12K medium supplemented with 2 mM L-glutamine, 100 units/ml penicillin, 100 μg/ml streptomycin and 10% heat inactivated fetal bovine serum at 37° C., 5% CO2 and 95% humidified air. […] DMSO was used as the vehicle control at a final concentration of 0.1%. Following 1 hr incubation of PC-3 cells with the compounds, the cells were washed 3× with ice-cold 1× Dulbecco's Phosphate-Buffered Saline (DPBS, Mediatech, Herndon, Va.). […] Cell debris was pelleted by centrifugation at 14,000 rpm for 10 min, 4° C. and supernatants (=cell lysates) were transferred to a new tube. Protein concentration was determined by the BCA protein assay kit (Pierce Biotechnology, Rockford, Ill.). […] The released coumarin (AMC) was measured fluorometrically by using λex=390 nm and λem=460 nm. The assay was performed in a microtiter plate (Corning 3904) and followed kinetically with measurements every five minutes for 2 hr. The total amount of protein used for each assay was 20 μg. The final concentration of Suc-LLVY-AMC and DMSO was 20 μM and 0.2%, respectively. Results are presented as the percent inhibition of the 20S proteasome chymotrypsin-like activity relative to the DMSO control.

RPMI 8226 = assay: Cell growth inhibition assay (resazurin, 48 h); details: RPMI 8226
Procedure: RPMI 8226 (CCL-155), HT-29 (HTB-38), and B16-F10 (CRL-6475) cells were purchased from ATCC. RPMI 8226 cells were maintained in RPMI 1640 media supplemented with 10% (v/v) FBS, 2 mM L-glutamine, 1 mM sodium pyruvate and Penicillin/Streptomycin at 100 IU/ml and 100 μg/ml, respectively. HT-29 cells were maintained in McCoys 5A supplemented with 10% (v/v) FBS, 2 mM L-glutamine, 1 mM sodium pyruvate, 1% (v/v) non-essential amino acids, 10 mM HEPES and Penicillin/Streptomycin at 100 IU/ml and 100 μg/ml, respectively. B16-F10 cells were maintained in DMEM supplemented with 10% (v/v) FBS, 2 mM L-glutamine, 10 mM HEPES and Penicillin/Streptomycin at 100 IU/ml and 100 μg/ml, respectively.
RPMI 8226 cells were seeded at 2×10^4 cells/well in 90 μl RPMI media containing 10% (v/v) FBS or 1% (v/v) FBS into 96 well black-walled, clear-bottom tissue culture plates. […] Formulae II-16, II-17 and Formula II-18 were serially diluted in media containing 1% or 10% FBS and added in triplicate to the test wells. […] The final concentration of Formula II-18 ranged from 2 μM to 630 pM.

[5] = target: rabbit muscle 20S proteasome, trypsin-like activity (Oryctolagus cuniculus, UniProt G1SWK8); assay: Trypsin-like activity of purified rabbit 20S proteasome (Boc-LRR-AMC)
NCI-H292 = assay: Cell growth inhibition assay (resazurin, 48 h); type: cell-based, human; details: Homo sapiens, NCI-H292, 48 h

Sequence of rabbit muscle 20S proteasome, trypsin-like activity (G1SWK8 1-271): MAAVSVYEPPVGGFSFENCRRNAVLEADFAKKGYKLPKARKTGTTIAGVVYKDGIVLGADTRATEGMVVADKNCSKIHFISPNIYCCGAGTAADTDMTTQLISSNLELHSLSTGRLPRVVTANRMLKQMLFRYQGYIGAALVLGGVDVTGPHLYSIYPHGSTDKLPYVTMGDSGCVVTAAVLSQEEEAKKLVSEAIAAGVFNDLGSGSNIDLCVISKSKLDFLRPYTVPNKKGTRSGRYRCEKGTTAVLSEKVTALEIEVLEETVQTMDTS
Sequence of rabbit muscle 20S proteasome, chymotrypsin-like activity (G1T4Q9 1-263): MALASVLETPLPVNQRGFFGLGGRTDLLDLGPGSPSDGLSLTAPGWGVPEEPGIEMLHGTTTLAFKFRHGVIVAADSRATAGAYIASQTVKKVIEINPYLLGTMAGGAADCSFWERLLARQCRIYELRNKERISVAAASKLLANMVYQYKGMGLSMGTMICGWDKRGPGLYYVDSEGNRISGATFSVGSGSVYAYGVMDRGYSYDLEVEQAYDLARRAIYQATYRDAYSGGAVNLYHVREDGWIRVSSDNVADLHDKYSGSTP

SMILES: CC(=O)N[C@@H](CSC(=O)[C@]1([C@@H](O)C(C)C)NC(=O)[C@H](C)[C@@H]1O)C(=O)O [Lactacystin]
- EC50 (RAW264.7 cells [1]): 3000 nM

SMILES: C[C@@]12OC(=O)[C@]1([C@@H](O)[C@H]1CCC[C@H](Cl)[C@H]1O)NC(=O)[C@@H]2CCCl [Formula IV-3C]
- EC50 (NF-κB): > 20000 nM

SMILES: C[C@]1(O)[C@@H](CCCl)C(=O)N[C@]1(C(=O)SCC(NC(=O)CCC(N)C(=O)O)C(=O)NCC(=O)O)[C@@H](O)[C@@H]1C=CCCC1 (some centres unmarked) [Formula II-48]
- stability in solution (Stability in solution): unstable in solution

SMILES: C[C@@]12OC(=O)[C@]1(C(=O)C1=CC(O)CCC1)NC(=O)[C@]2(C)CCCl (some centres unmarked) [Formula II-31]
- EC50 [2]: > 20000 nM

SMILES: O=C1c2c(O)ccc(O)c2C(=O)c2c(NCCNCCO)ccc(NCCNCCO)c21 [Mitoxantrone]
- EC50 (HL-60/MX2): 827 nM and 1340 nM and 1170 nM
- EC50 (HL-60/MX2; Homo sapiens, HL60/MX2, 48 h): 1410 nM

SMILES: CC(C)C[C@@H](C=O)NC(=O)[C@H](CC(C)C)NC(=O)[C@H](CC(C)C)NC(=O)OCc1ccccc1 [MG132] (Cbz-Leu-Leu-Leu-aldehyde)
- EC50 (RAW264.7 cells [1]): 3000 nM

SMILES: CC(=O)O[C@H]1C(=O)[C@@]2(C)[C@H]([C@H](OC(=O)c3ccccc3)[C@]3(O)C[C@H](OC(=O)[C@H](O)[C@@H](NC(=O)c4ccccc4)c4ccccc4)C(C)=C1C3(C)C)[C@]1(OC(C)=O)CO[C@@H]1C[C@@H]2O [Paclitaxel, reference compound]
- % cytotoxicity (MES-SA/Dx5): 78 ± 1%

SMILES: CC[C@H]1C(=O)N[C@@]2([C@@H](O)C3CCCCC3)C(=O)O[C@@]12C [Formula II-3]
- EC50 (NF-κB): > 20000 nM
- EC50 (MES-SA/Dx5; Homo sapiens): > 20000 nM
- EC50 (U266): > 20000 nM
- EC50 (PC-3): > 20000 nM

SMILES: CC(C)[C@H](O)[C@@]12NC(=O)[C@H](C)[C@@H]1OC2=O [Omuralide, reference compound]
- viability at 1 µM (RAW264.7 cells [3]): 37%
- % inhibition of the chymotrypsin-like activity of 20S proteasomes in PC-3 cell lysates ([4]; 100 nM): 36%

SMILES: C[C@@]12OC(=O)[C@]1([C@@H](O)[C@@H]1C=CCCC1)NC(=O)[C@@H]2CCBr [Formula II-18]
- % cytotoxicity (RPMI 8226): 94, 94%

SMILES: C[C@@]12OC(=O)[C@]1([C@@H](O)[C@H]1CCC[C@@H]3O[C@H]13)NC(=O)[C@@H]2CCCl [Formula II-5B]
- EC50 [5]: 762 nM and 716 nM

SMILES: C[C@@]12OC(=O)[C@]1([C@@H](O)C1CCCCC1)NC(=O)[C@@H]2CCCl [Formula II-2]
- EC50 (MES-SA/Dx5; Homo sapiens): 220 nM
- EC50 (MES-SA/Dx5): 138 nM
- EC50 (HL-60/MX2; Homo sapiens, HL60/MX2, 48 h): 142 nM
- EC50 (NCI-H292): 395 nM
- EC50 (NCI-H292; read-out: EC50): 322 nM

SMILES: C[C@@]12OC(=O)[C@]1([C@@H](O)[C@H]1CCC[C@H]3O[C@@H]13)NC(=O)[C@@H]2CCCl (single isomer, unassigned) [Formula II-5A]
- EC50 [5]: 87 nM

SMILES: C[C@@]12OC(=O)[C@]1([C@@H](O)C1CCCCC1)NC(=O)[C@@H]2CCBr [Formula II-4]
- EC50 (MES-SA/Dx5; Homo sapiens): 178 nM
- EC50 (MES-SA/Dx5): 93 nM
- EC50 (U266): 39 nM
- EC50 (NCI-H292): 213 nM
- EC50 (NCI-H292; read-out: EC50): 192 nM

SMILES: CC[C@H]1C(=O)N[C@@]2([C@@H](O)[C@@H]3C=CCCC3)C(=O)O[C@@]12C [Formula II-17]
- % inhibition of the chymotrypsin-like activity of 20S proteasomes in PC-3 cell lysates ([4]; 100 nM): 26%
- inhibition at 0.01 µM ([4]; PC-3, read-out: % inhibition of the chymotrypsin-like activity of 20S proteasomes in PC-3 cell lysates, 10 nM): 16%
- inhibition at 0.1 µM ([4]; PC-3, read-out: % inhibition of the chymotrypsin-like activity of 20S proteasomes in PC-3 cell lysates, 100 nM): 26%
- inhibition at 1 µM ([4]; PC-3, read-out: % inhibition of the chymotrypsin-like activity of 20S proteasomes in PC-3 cell lysates, 1,000 nM): 49%
- inhibition at 10 µM ([4]; PC-3, read-out: % inhibition of the chymotrypsin-like activity of 20S proteasomes in PC-3 cell lysates, 10,000 nM): 79%

— patent US7579371B2, “Methods of using [3.2.0] heterocyclic compounds and analogs thereof” (Nereus Pharmaceuticals, Inc., priority 2004, dated 2009)
